Experimental data from PubChem BioAssay (NCI).
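GI50 = concentration required for 50% inhibition of growth. The concentration for full growth arrest is given as TGI.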

Experiments:
Assay in all cases: growth of human tumour cells (NCI), 384-well format; in the data active means GI50 below about 0.43 µM; inactive means the rest
[1] = system: CCRF-CEM leukemia
[2] = system: RPMI-8226 leukemia
[3] = system: SK-OV-3 ovarian
[4] = system: HS 578T breast
[5] = system: M14 melanoma
[6] = system: KM12 colon
[7] = system: A549 NSCLC
[8] = system: HT29 colon
[9] = system: UACC-62 melanoma
[10] = system: SNB-75 CNS
[11] = system: SF-295 CNS
[12] = system: UACC-257 melanoma
[13] = system: EKVX NSCLC
[14] = system: NCI-H23 lung
[15] = system: LOX IMVI melanoma
[16] = system: RXF 393 renal
[17] = system: PC-3 prostate
[18] = system: HCC-2998 colon
[19] = system: SK-MEL-5 melanoma
[20] = system: COLO 205 colon
[21] = system: HCT-15 colon
[22] = system: T-47D breast
[23] = system: HOP-62 NSCLC
[24] = system: SF-539 CNS
[25] = system: OVCAR-8 ovarian
[26] = system: SK-MEL-28 melanoma
[27] = system: NCI/ADR-RES ovarian
[28] = system: MDA-MB-468 breast
[29] = system: MOLT-4 leukemia
[30] = system: OVCAR-4 ovarian
[31] = system: MALME-3M melanoma
[32] = system: HL-60(TB) leukemia
[33] = system: NCI-H522 lung
[34] = system: MDA-MB-231 breast
[35] = system: OVCAR-3 ovarian
[36] = system: U251 glioblastoma
[37] = system: SN12C renal
[38] = system: A498 renal
[39] = system: MDA-MB-435 melanoma
[40] = system: HCT-116 colon
[41] = system: CAKI-1 renal
[42] = system: UO-31 renal
[43] = system: NCI-H460 NSCLC
[44] = system: SF-268 CNS
[45] = system: MCF7 breast
[46] = system: TK-10 renal
[47] = system: IGROV1 ovarian
[48] = system: HOP-92 NSCLC
[49] = system: ACHN renal
[50] = system: NCI-H226 lung
[51] = system: SNB-19 CNS
[52] = system: DU-145 prostate
[53] = system: SW-620 colon
[54] = system: OVCAR-5 ovarian
[55] = system: NCI-H322M lung
[56] = system: 786-0 renal
[57] = system: BT-549 breast

C[C@H]1Oc2cc(cnc2N)-c2c(nn(C)c2C#N)CN(C)C(=O)c2ccc(F)cc21
99.5 µM: TGI [33]
> 54 µM: TGI [42]
> 83.6 µM: TGI [47]
44.1 µM: TGI [13]
84.5 µM: TGI [34]
> 100 µM: TGI [1] | TGI [2] | TGI [3] | TGI [4] | TGI [5] | TGI [6] | TGI [7] | TGI [8] | TGI [9] | TGI [11] | TGI [12] | TGI [14] | TGI [15] | TGI [17] | TGI [18] | TGI [19] | TGI [21] | TGI [22] | TGI [23] | TGI [24] | TGI [25] | TGI [26] | TGI [27] | TGI [30] | TGI [31] | TGI [32] | TGI [35] | TGI [36] | TGI [37] | TGI [38] | TGI [39] | TGI [40] | TGI [41] | TGI [43] | TGI [44] | TGI [45] | TGI [46] | TGI [51] | TGI [52] | TGI [53] | TGI [54] | TGI [56] | TGI [57]
> 24.9 µM: TGI [49]
> 63.1 µM: TGI [16]
inactive: GI50 [1] 57.1 µM | GI50 [2] 57 µM | GI50 [3] 68.2 µM | GI50 [4] 19.9 µM | GI50 [5] 56.3 µM | GI50 [7] 22 µM | GI50 [8] 18 µM | GI50 [9] 32.8 µM | GI50 [10] 34.4 µM | GI50 [11] 72.8 µM | GI50 [12] > 100 µM | GI50 [13] 9.26 µM | GI50 [14] 24.3 µM | GI50 [15] > 71.9 µM | GI50 [16] 11.6 µM | GI50 [17] > 100 µM | GI50 [18] > 100 µM | GI50 [19] 50.2 µM | GI50 [20] 11.1 µM | GI50 [21] 91.9 µM | GI50 [22] 57.2 µM | GI50 [23] 15.7 µM | GI50 [24] > 100 µM | GI50 [25] > 100 µM | GI50 [26] > 79.1 µM | GI50 [27] 41.6 µM | GI50 [28] 23.8 µM | GI50 [29] 4.84 µM | GI50 [30] > 100 µM | GI50 [31] 26.2 µM | GI50 [32] 63.8 µM | GI50 [33] 33.7 µM | GI50 [34] 14.6 µM | GI50 [35] > 88 µM | GI50 [36] > 100 µM | GI50 [37] 61.6 µM | GI50 [38] > 95.6 µM | GI50 [39] > 100 µM | GI50 [40] 32.1 µM | GI50 [41] 26.5 µM | GI50 [42] 37.3 µM | GI50 [43] 35.7 µM | GI50 [44] 47.3 µM | GI50 [45] 17.5 µM | GI50 [46] > 92.9 µM | GI50 [47] 26.1 µM | GI50 [48] 11 µM | GI50 [49] 11.4 µM | GI50 [50] 23 µM | GI50 [51] > 100 µM | GI50 [52] 49.8 µM | GI50 [53] > 100 µM | GI50 [54] 37.7 µM | GI50 [55] 23.6 µM | GI50 [56] 49.7 µM | GI50 [57] > 100 µM
18.8 µM: TGI [29]
> 78.6 µM: TGI [55]
> 73.1 µM: TGI [50]
> 84.1 µM: TGI [20]
active: GI50 [6] 0.364 µM
> 84.7 µM: TGI [10]
67.6 µM: TGI [48]
> 86.2 µM: TGI [28]
